The test deals with antigen-induced bronchoconstriction. Kind of test: Antigen-induced bronchoconstriction model of guinea pig (Konzett-Rossler method). The conditions noted are these: Cavia porcellus, po, 1 h; guinea pigs sensitized by ovalbumin, orally administered, one hour after administration; read-out: Suppression of Respiratory Constriction (ED50: mg/kg). Format: in vivo. Here is the method: Guinea pigs sensitized by ovalbumin were used and orally administered with the test compound suspended in 5% gum arabic. The activity for suppressing antigen-induced bronchoconstriction after one hour after administration was measured by the Konzett-Rossler method.
Each of the sensitized guinea pigs was anesthesized by 35 mg/kg pentobarbital, a airway cannula was inserted into the trachea and connected to an artificial respirator and transducer, a vein cannula was inserted into the jugular vein, and treatment was performed by 5 mg/kg soxamethonium and 5 mg/kg mepyramine. Next, the guinea pig was inhaled a nebulized ovalbumin to cause bronchoconstriction and the activity in suppressing bronchoconstriction was found from the ratio of the amount of overflow volume to the detector to the amount of air blown volume from the artificial respirator.
As the test compound, the Compound 7 was used. […]
`NC(=O)N(O)CCCC(c1ccccc1)c1cccnc1` (stereo not drawn) [Compound 7, N-hydroxy-N-[4-phenyl-4-(3-pyridyl)butyl]urea]: the ED50 turned out to be 70 mg/kg. In the case of `CC(c1cc2ccccc2s1)N(O)C(N)=O` (stereo not drawn) [Compound A-64077], the ED50 came out at 300 mg/kg.

Turning to `O=C(O)/C=C/c1ccc(Cn2ccnc2)cc1` [OKY-046], the ED50 amounted to 260 mg/kg.

For the origin of these results see patent EP0807626A1, “N-HYDROXYUREA DERIVATIVES” (Nikken Chemicals Company, Limited, priority 1995, dated 1996).
